Patent US20120171213A1, “METHOD OF TREATING TUMORS” (Yissum Research Development Company of the Hebrew …, priority 2009, published 2012)

Tests used:
tumor cell = settings: both in vitro and in vivo; cited from earlier work
[1] = system: hES-cell teratoma-derived tumor cells (WA09, TE06); test: Annexin V / PI flow cytometry for apoptosis after Taxol and Purvalanol A treatment in vitro; format: cell-based, human; settings: 0.2 µM Taxol 16 hours and/or 10 µM Purvalanol A 16 hours, sequential, versus DMSO, n=5
Procedure: FACS: Annexin V and PI staining for apoptosis detection was performed using the Annexin V-PE kit (Bender MedSystems) according to the manufacturer's instructions. FACS analysis was performed using FACSCaliber system (Becton Dickinson). Analysis was performed on […] software (Becton Dickinson). Forward and side scatter plots were used to exclude debris from the histogram analysis.
The medium was then replaced with a medium containing […] Purvalanol A (Sigma), and the cells were cultured for an additional 16 hours. Other wells were treated with either Taxol for 16 hours followed by DMSO (the solution vehicle) for 16 hours or DMSO for 16 hours followed by Purvalanol A for 16 hours. Control wells were treated twice with DMSO at the same time points. Mice bearing hES-cell teratomas for 30 d were injected intraperitoneally with 7 mg/kg Taxol and 24 hours later were injected with 60 mg/kg Purvalanol A. Reagents were injected in a solution of DMSO/PEG400 at 1:1 ratio. Control mice received vehicle injections at the same time points. Mice were euthanized 18 hours after the last injection. Fresh frozen […] teratoma sections were subjected to TUNEL using the ApoAlert DNA Fragmentation Assay Kit (Clontech) according to the manufacturer's instructions.

SMILES | tumor cell death by apoptosis (tumor cell) | fold increase in apoptotic cells (Annexin V positive) [1]
CC(C)[C@H](CO)Nc1nc(Nc2cccc(Cl)c2)c2ncn(C(C)C)c2n1 [Purvalanol A] | negligible results | no significant effect
CC(=O)O[C@H]1C(=O)[C@@]2(C)[C@H]([C@H](OC(=O)c3ccccc3)[C@]3(O)C[C@H](OC(=O)[C@H](O)[C@@H](NC(=O)c4ccccc4)c4ccccc4)C(C)=C1C3(C)C)[C@]1(OC(C)=O)CO[C@@H]1C[C@@H]2O [Taxol] | negligible results | 
